Values of other authors, collected in paper PMC12390126, “Human Skin Permeation of Ethoxy- and Propoxypropanol Commonly Found in Water-Based Products” (Toxics, 2025).
Like-named read-outs stand apart in the source and are kept apart here.

Legend:
[1] = frozen full thickness skin, 32 °C, 4 h, cited from earlier work; for J ± SD / Kp ± SD: 56.1-61.7 mg/cm^2
[2] = dermatomed 0.8 mm, 32 °C, 24 h, cited from earlier work; for J ± SD / Kp ± SD: 109.6 (PGME) or 100.0 (PGBE) mg/cm^2
[3] = design: method as in PMID 15251185; details: frozen full thickness skin (1 mm), 32 °C, 57.8 mg/cm^2, 8 h; cited from earlier work

Molecule: COCC(C)OC(C)=O (stereo not drawn) [PGMEac, propylene glycol methyl ether acetate]
- J ± SD [1]: 59 ± 44 µg/cm^2/h
- Kp ± SD [1]: 0.06 ± 0.006 10^−3 cm/h
- Tlag ± SD [1]: 0.5 ± 0.05 h

Molecule: CCCCOCC(C)O (stereo not drawn) [PGBE, propylene glycol butyl ether]
- J ± SD ([2]; fresh skin): 7.93 ± 1.57 µg/cm^2/h
- Kp ± SD ([2]; fresh skin): 0.009 ± 0.002 10^−3 cm/h
- Tlag ± SD ([2]; fresh skin): 0.89 ± 0.13 h
- J ± SD ([2]; frozen skin): 44.1 ± 16.2 µg/cm^2/h
- Kp ± SD ([2]; frozen skin): 0.05 ± 0.02 10^−3 cm/h
- Tlag ± SD ([2]; frozen skin): 0.86 ± 0.23 h
- J ± SD [1]: 17 ± 5 µg/cm^2/h
- Kp ± SD [1]: 0.02 ± 0.005 10^−3 cm/h
- Tlag ± SD [1]: 0.62 ± 0.03 h

Molecule: dipropylene glycol methyl ether [DPGME]
- J ± SD [3]: 106.3 ± 37.6 µg/cm^2/h
- Kp ± SD [3]: 0.11 ± 0.04 10^−3 cm/h
- Tlag ± SD [3]: 1.51 ± 0.48 h
